Results: ChEMBL document CHEMBL5032517, “Synthesis of the analogs of plocabulin and their preliminary structure-activity relationship study” (Bioorg Med Chem Lett, 2021)

Legend:
Tubulin = test: Inhibition of tubulin polymerization (unknown origin); format: protein-complex assay, Homo sapiens
A549 [1] = test: Antiproliferative activity against human A549 cells assessed as inhibition of cell growth by secondary round CCK8 assay; format: functional, cell-based
HepG2 [2] = test: Antiproliferative activity against human HepG2 cells assessed as inhibition of cell growth by first round CCK8 assay; format: functional, cell-based
HepG2 [3] = test: Antiproliferative activity against human HepG2 cells assessed as inhibition of cell growth by secondary round CCK8 assay; format: functional, cell-based
HT-29 [4] = test: Antiproliferative activity against human HT-29 cells assessed as inhibition of cell growth by secondary round CCK8 assay
HT-29 [5] = test: Antiproliferative activity against human HT-29 cells assessed as inhibition of cell growth by first round CCK8 assay; format: functional, cell-based
A549 [6] = test: Antiproliferative activity against human A549 cells assessed as inhibition of cell growth by first round CCK8 assay; format: functional, cell-based

Row | SMILES | IC50 (Tubulin) | IC50 (A549 [1]) | IC50 (HepG2 [2]) | IC50 (HepG2 [3]) | IC50 (HT-29 [4]) | IC50 (HT-29 [5]) | IC50 (A549 [6])
1 | C/C=C\CC(C/C=C\NC(=O)[C@@H](NC(=O)\C=C/C=C\C(C)=C\[C@H](C)[C@@H]1CC=C(OC)C(=O)O1)C(C)(C)C)OC(N)=O (some centres not stated) | 3100 nM | < 0.2 nM | 1.64 nM | 0.36 nM | < 0.2 nM | 0.27 nM | 0.72 nM
2 | COC1=CC[C@@H]([C@@H](C)/C=C(C)/C=C\C=C/C(=O)N[C@H](C(=O)N/C=C\CCOC(N)=O)C(C)(C)C)OC1=O |  |  | 5.8 nM |  |  | 1.1 nM | 2.4 nM
3 | COC1=CC[C@@H]([C@@H](C)/C=C(C)/C=C\C=C/C(=O)N[C@H](C(=O)N/C=C(/C)CCOC(N)=O)C(C)(C)C)OC1=O | 16000 nM |  |  |  |  |  | 
4 | CC(=O)O[C@H]1C(=O)[C@@]2(C)[C@H]([C@H](OC(=O)c3ccccc3)[C@]3(O)C[C@H](OC(=O)[C@H](O)[C@@H](NC(=O)c4ccccc4)c4ccccc4)C(C)=C1C3(C)C)[C@]1(OC(C)=O)CO[C@@H]1C[C@@H]2O [PACLITAXEL] |  |  |  | 10.1 nM |  |  | 
